Laboratory results reported in US12570673B2, “c-Myc protein inhibitor, and preparation method therefor and use thereof” (SUZHOU KINTOR PHARMACEUTICALS, INC., priority 2019, dated 2026).

system: HL60 cells; experiment: Anti-cancer activity test, MTT, HL60 cells; format: cell-based; settings: Homo sapiens, HL-60, culturing for 72 hours
Experimental: Cell culture medium: Roswell medium RPMI-1640 (+L-glutamine) was added with 10% fetal bovine serum, with 100 units penicillin and 100 μg streptomycin per ml.
Cell culture conditions: 5% CO2, 95% humidity, cultured at 37° C. constant temperature.
2. Cell Inoculation, Drugs Dosing and Culture.
Logarithmic growth phase HL-60, human chronic myeloid leukemia cells (K562), human esophageal squamous cell carcinoma cells (KYSE510), human large cell lung cancer cells (H460) were inoculated into 96-well cell culture plates, 2×10^4 cells per well. Different concentrations of active compounds (dissolved in dimethyl sulfoxide (DMSO) stock solution) were added, so that the final concentration of DMSO was 0.2%, and the control group was DMSO. Each group was repeated three times.
After culturing for 72 hours, 20 µL of thiazolyl blue (MTT) (5 mg/ml, ready for use, dissolved in 1×PBS for cell culture) was added to each well, and incubated at 37° C. for 3 hours.
The 96-well cell culture plates were centrifuged at 1000 rpm for 10 minutes. The supernatant was discarded; 200 μL of DMSO was added to each well and the plate was shaken for 5 minutes.
The absorbance of each well was detected at 570 nm wavelength with a microplate reader, and the IC50 of the compounds was calculated.

SMILES	IC50 [nM]
CC(C)C[C@H](NC(=O)[C@H](CC(C)C)NC(=O)Cn1c2ncccc2c2cccnc21)B1O[C@@H]2C[C@@H]3C[C@@H](C3(C)C)[C@]2(C)O1 [Compound A64]	500 to 2000
CC(C)C[C@H](NC(=O)[C@H](Cc1c[nH]c2ccccc12)NC(=O)c1ccc2ncccc2c1)B(O)O [Compound A74]	< 100
CC(C)C[C@H](NC(=O)[C@H](CC(C)C)NC(=O)CN(c1ccccc1)c1ccccc1)B(O)O [Compound A93]	500 to 2000
COc1ccc2cc(C(=O)N[C@@H](Cc3c[nH]c4ccccc34)C(=O)N[C@@H](CC(C)C)B3O[C@@H]4C[C@@H]5C[C@@H](C5(C)C)[C@]4(C)O3)ccc2c1 [Compound A52]	< 100
CC(C)C[C@H](NC(=O)[C@H](CC(C)C)NC(=O)Cn1c2ccccc2c2cc(F)ccc21)B1O[C@@H]2C[C@@H]3C[C@@H](C3(C)C)[C@]2(C)O1 [Compound A60]	500 to 2000
CC(C)C[C@H](NC(=O)[C@H](Cc1c[nH]c2ccccc12)NC(=O)c1ccc2ccccc2c1)B(O)O [Compound A76]	< 100
CC(C)C[C@H](NC(=O)[C@H](CC(C)C)N(C)C(=O)OCC1c2ccccc2-c2ccccc21)B1O[C@@H]2C[C@@H]3C[C@@H](C3(C)C)[C@]2(C)O1 [Compound A50]	2000 to 10000
CC(C)C[C@H](NC(=O)[C@H](Cc1cn(C(=O)OC(C)(C)C)c2ccccc12)NC(=O)C12CC3CC(C1)C(=O)C(C3)C2)B1O[C@@H]2C[C@@H]3C[C@@H](C3(C)C)[C@]2(C)O1 [Compound A28]	500 to 2000
CC(C)C[C@H](NC(=O)[C@H](Cc1c[nH]c2ccccc12)NC(=O)c1ccc2ncccc2c1)B1O[C@@H]2C[C@@H]3C[C@@H](C3(C)C)[C@]2(C)O1 [Compound A35]	100 to 500
CC(C)C[C@H](NC(=O)[C@H](Cc1cn(C(=O)OC(C)(C)C)c2ccccc12)NC(=O)C1CC2C=CC1C2)B1O[C@@H]2C[C@@H]3C[C@@H](C3(C)C)[C@]2(C)O1 (stereo partly drawn) [Compound A27]	< 100
CC(C)C[C@H](NC(=O)[C@H](CC(C)C)NC(=O)Cn1c2ccccc2c2cccnc21)B(O)O [Compound A94]	500 to 2000
CC(C)C[C@H](NC(=O)[C@H](Cc1c[nH]c2ccccc12)NS(=O)(=O)Cc1ccccc1)B(O)O [Compound A71]	< 100
CC(C)C[C@H](NC(=O)[C@H](CC(C)C)NC(=O)Cn1c2ccccc2c2cccnc21)B1O[C@@H]2C[C@@H]3C[C@@H](C3(C)C)[C@]2(C)O1 [Compound A56]	500 to 2000
CC(C)C[C@H](NC(=O)[C@H](CC(C)C)NC(=O)NCC1c2ccccc2-c2ccccc21)B1O[C@@H]2C[C@@H]3C[C@@H](C3(C)C)[C@]2(C)O1 [Compound A43]	< 100
CC(C)C[C@H](NC(=O)[C@H](CC(C)C)NC(=O)Cn1c2ccccc2c2cc(F)ccc21)B(O)O [Compound A98]	500 to 2000
COc1ccc2c3ccccc3n(CC(=O)N[C@@H](CC(C)C)C(=O)N[C@@H](CC(C)C)B3O[C@@H]4C[C@@H]5C[C@@H](C5(C)C)[C@]4(C)O3)c2c1 [Compound A57]	500 to 2000
CC(C)C[C@H](NC(=O)[C@H](C)NC(=O)OCC1c2ccccc2-c2ccccc21)B1O[C@@H]2C[C@@H]3C[C@@H](C3(C)C)[C@]2(C)O1 [Compound A12]	< 100
CC(C)C[C@H](NC(=O)CNC(=O)OCC1c2ccccc2-c2ccccc21)B1O[C@@H]2C[C@@H]3C[C@@H](C3(C)C)[C@]2(C)O1 [Compound A51]	< 100
CC(C)C[C@H](NC(=O)OCC1c2ccccc2-c2ccccc21)C(=O)N1CCC[C@H]1B(O)O [Compound A82]	2000 to 10000
CC(C)C[C@H](NC(=O)CNC(=O)OCC1c2ccccc2-c2ccccc21)B(O)O [Compound A84]	< 100
CC(C)C[C@H](NC(=O)[C@@H](C)NC(=O)OCC1c2ccccc2-c2ccccc21)B(O)O [Compound A85]	100 to 500
COc1ccc2cc(C(=O)N[C@@H](Cc3c[nH]c4ccccc34)C(=O)N[C@@H](CC(C)C)B(O)O)ccc2c1 [Compound A87]	< 100
CC(C)C[C@H](NC(=O)[C@H](Cc1cn(C(=O)OC(C)(C)C)c2ccccc12)NC(=O)OCC1c2ccccc2-c2ccccc21)B1O[C@@H]2C[C@@H]3C[C@@H](C3(C)C)[C@]2(C)O1 [Compound A8]	< 100
CC(C)C[C@H](NC(=O)[C@H](Cc1c[nH]c2ccccc12)NC(=O)CC12CC3CC(CC(C3)C1)C2)B1O[C@@H]2C[C@@H]3C[C@@H](C3(C)C)[C@]2(C)O1 [Compound A25]	< 100
CC(C)C[C@H](NC(=O)[C@H](CC(C)C)NC(=O)Cn1c2ccccc2c2ccc(OCc3ccccc3)cc21)B(O)O [Compound A105]	100 to 500
CC(C)C[C@H](NC(=O)[C@H](CC(C)C)NC(=O)Cn1c2ccccc2c2ccc(F)cc21)B(O)O [Compound A103]	500 to 2000

SMILES	IC50 [nM]
COc1ccc2c3ccccc3n(CC(=O)N[C@@H](CC(C)C)C(=O)N[C@@H](CC(C)C)B(O)O)c2c1 [Compound A95]	500 to 2000
CC(C)C[C@H](NC(=O)[C@H](CC(=O)NC(c1ccccc1)(c1ccccc1)c1ccccc1)NC(=O)OC(C)(C)C)B1O[C@@H]2C[C@@H]3C[C@@H](C3(C)C)[C@]2(C)O1 [Compound A19]	100 to 500
CC(C)C[C@H](NC(=O)[C@H](CC(C)C)N(C)C(=O)OCC1c2ccccc2-c2ccccc21)B(O)O [Compound A83]	2000 to 10000
CC(C)C[C@H](NC(=O)[C@H](Cc1c[nH]c2ccccc12)NC(=O)c1ccncc1)B(O)O [Compound A72]	500 to 2000
CC(C)C[C@H](NC(=O)[C@H](Cc1c[nH]c2ccccc12)NC(=O)CC12CC3CC(CC(C3)C1)C2)B(O)O [Compound A68]	100 to 500
CC(C)C[C@H](NC(=O)[C@H](C)NC(=O)c1cccc2c1C(=O)N(C1CCC(=O)NC1=O)C2=O)B(O)O (stereo partly drawn) [Compound A91]	2000 to 10000
CC(C)C[C@H](NC(=O)[C@H](CC(C)C)NC(=O)Cn1c2ccccc2c2ccc(C#N)cc21)B(O)O [Compound A101]	100 to 500
CC(C)C[C@H](NC(=O)[C@H](CC(C)C)NC(=O)Cn1c2ccccc2c2ccc(Cl)cc21)B(O)O [Compound A99]	100 to 500
CC(C)C[C@H](NC(=O)[C@H](Cc1c[nH]c2ccccc12)NS(=O)(=O)Cc1ccccc1)B1O[C@@H]2C[C@@H]3C[C@@H](C3(C)C)[C@]2(C)O1 [Compound A32]	< 100
CC(C)C[C@H](NC(=O)[C@H](Cc1c[nH]c2ccccc12)NC(=O)c1nc2ccccc2s1)B1O[C@@H]2C[C@@H]3C[C@@H](C3(C)C)[C@]2(C)O1 [Compound A34]	100 to 500
CC(C)C[C@H](NC(=O)[C@H](Cc1c[nH]c2ccccc12)NC(=O)OC1CCCC1)B1O[C@@H]2C[C@@H]3C[C@@H](C3(C)C)[C@]2(C)O1 [Compound A45]	< 100
CC(C)C[C@H](NC(=O)[C@H](Cc1c[nH]c2ccccc12)NC(=O)c1ccc2cc(N)ccc2c1)B(O)O [Compound A88]	< 100
CC(C)C[C@H](NC(=O)[C@H](CC(N)=O)NC(=O)CC1c2ccccc2-c2ccccc21)B(O)O [Compound A81]	100 to 500
CC(C)C[C@H](NC(=O)[C@H](CC(=O)NC(c1ccccc1)(c1ccccc1)c1ccccc1)NC(=O)OCC1c2ccccc2-c2ccccc21)B(O)O [Compound A89]	100 to 500
CC(C)C[C@H](NC(=O)[C@@H](NC(=O)OCC1c2ccccc2-c2ccccc21)[C@@H](C)O)B1O[C@@H]2C[C@@H]3C[C@@H](C3(C)C)[C@]2(C)O1 [Compound A11]	100 to 500
CC(C)C[C@H](NC(=O)[C@H](Cc1c[nH]c2ccccc12)NCc1ccccc1)B1O[C@@H]2C[C@@H]3C[C@@H](C3(C)C)[C@]2(C)O1 [Compound A46]	100 to 500
CC(C)C[C@H](NC(=O)[C@H](CC(C)C)NC(=O)Cn1c2ccccc2c2ccc(Br)cc21)B1O[C@@H]2C[C@@H]3C[C@@H](C3(C)C)[C@]2(C)O1 [Compound A62]	100 to 500
CC(C)C[C@H](NC(=O)[C@H](CC(C)C)NC(=O)Cn1c2ccc(Br)cc2c2cc(Br)ccc21)B1O[C@@H]2C[C@@H]3C[C@@H](C3(C)C)[C@]2(C)O1 [Compound A40]	500 to 2000
CC(C)C[C@H](NC(=O)[C@H](CC(C)C)NC(=O)Cn1c2ccccc2c2ncccc21)B(O)O [Compound A104]	100 to 500
CC(C)C[C@H](NC(=O)[C@H](C)NC(=O)c1cccc2c1C(=O)N(C1CCC(=O)NC1=O)C2=O)B1O[C@@H]2C[C@@H]3C[C@@H](C3(C)C)[C@]2(C)O1 (stereo partly drawn) [Compound A54]	2000 to 10000
CC(C)C[C@H](NC(=O)[C@H](Cc1c[nH]c2ccccc12)NC(=O)C12CC3CC(CC(C3)C1)C2)B1O[C@@H]2C[C@@H]3C[C@@H](C3(C)C)[C@]2(C)O1 [Compound A26]	500 to 2000
CC(C)C[C@H](NC(=O)[C@@H](CC(=O)NC(c1ccccc1)(c1ccccc1)c1ccccc1)NC(=O)OCC1c2ccccc2-c2ccccc21)B1O[C@@H]2C[C@@H]3C[C@@H](C3(C)C)[C@]2(C)O1 [Compound A9]	100 to 500
CNC(=O)C[C@H](NC(=O)CC1c2ccccc2-c2ccccc21)C(=O)N[C@@H](CC(C)C)B1O[C@@H]2C[C@@H]3C[C@@H](C3(C)C)[C@]2(C)O1 [Compound A48]	< 100
COC(=O)C[C@H](NC(=O)CC1c2ccccc2-c2ccccc21)C(=O)N[C@@H](CC(C)C)B1O[C@@H]2C[C@@H]3C[C@@H](C3(C)C)[C@]2(C)O1 [Compound A47]	< 100
CC(C)C[C@H](NC(=O)[C@H](Cc1c[nH]c2ccccc12)NC(=O)c1nc2ccccc2s1)B(O)O [Compound A73]	< 100
